What was measured:
[1] = biological target: T1, 5-hydroxytryptamine receptor 1A (Rattus norvegicus, UniProt P19327); type: cell membranes, CHO-K1, Membrane; details: cho-k1; also: in other assays of this panel Not Active means under 50% inhibition at 10 µM
T1 sequence (P19327 whole entry): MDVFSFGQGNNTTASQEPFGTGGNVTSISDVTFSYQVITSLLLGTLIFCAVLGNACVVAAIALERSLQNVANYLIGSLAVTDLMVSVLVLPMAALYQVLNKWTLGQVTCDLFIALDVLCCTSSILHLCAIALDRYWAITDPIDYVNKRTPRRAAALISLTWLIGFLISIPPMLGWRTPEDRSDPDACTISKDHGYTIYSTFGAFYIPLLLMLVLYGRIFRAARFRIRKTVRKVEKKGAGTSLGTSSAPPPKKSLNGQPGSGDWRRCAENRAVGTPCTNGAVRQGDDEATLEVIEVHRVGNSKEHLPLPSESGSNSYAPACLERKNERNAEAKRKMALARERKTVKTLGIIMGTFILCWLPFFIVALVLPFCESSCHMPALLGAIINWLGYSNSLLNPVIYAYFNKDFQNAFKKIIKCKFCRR

[2] = biological target: T2, Endothelin-1 receptor (Homo sapiens, UniProt P25101); type: cell membranes, Membrane; details: cho-k1; also: in other assays of this panel Not Active means under 50% inhibition at 10 µM
T2 sequence (P25101 whole entry): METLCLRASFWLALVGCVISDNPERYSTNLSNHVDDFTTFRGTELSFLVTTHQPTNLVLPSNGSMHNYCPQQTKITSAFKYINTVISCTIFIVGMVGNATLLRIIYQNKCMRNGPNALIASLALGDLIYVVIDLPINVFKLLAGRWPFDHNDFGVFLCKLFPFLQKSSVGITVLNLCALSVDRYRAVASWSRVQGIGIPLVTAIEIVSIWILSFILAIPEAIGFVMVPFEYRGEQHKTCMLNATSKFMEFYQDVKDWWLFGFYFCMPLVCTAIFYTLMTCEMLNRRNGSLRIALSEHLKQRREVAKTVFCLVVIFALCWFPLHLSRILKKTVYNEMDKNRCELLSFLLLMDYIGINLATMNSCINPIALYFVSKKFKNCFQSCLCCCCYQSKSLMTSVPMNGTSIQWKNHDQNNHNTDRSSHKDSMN

[3] = biological target: T3, Neuropeptide Y receptor type 1 (Homo sapiens, UniProt P25929); type: cell membranes, Membrane; details: sk-n-mc; also: in other assays of this panel Not Active means under 50% inhibition at 10 µM
T3 sequence (P25929 whole entry): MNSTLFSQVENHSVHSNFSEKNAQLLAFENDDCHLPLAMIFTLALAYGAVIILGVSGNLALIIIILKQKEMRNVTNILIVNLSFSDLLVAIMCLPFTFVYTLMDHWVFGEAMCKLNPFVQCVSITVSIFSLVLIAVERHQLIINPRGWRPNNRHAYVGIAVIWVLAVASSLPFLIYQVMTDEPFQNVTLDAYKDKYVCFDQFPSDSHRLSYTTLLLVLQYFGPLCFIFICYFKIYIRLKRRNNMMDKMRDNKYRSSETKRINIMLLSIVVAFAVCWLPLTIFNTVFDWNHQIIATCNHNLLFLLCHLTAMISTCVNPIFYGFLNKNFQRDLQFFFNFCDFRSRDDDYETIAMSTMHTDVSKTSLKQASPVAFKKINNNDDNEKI

[4] = biological target: Acetylcholinesterase (Homo sapiens, UniProt P22303); assay: DRUGMATRIX: Acetylcholinesterase enzyme inhibition (substrate: acetylthiocholine); type: cell-based, HEK293; details: hek293; Not Active = under 50% inhibition at 10 µM
[5] = biological target: T4, Muscarinic acetylcholine receptor M4 (Homo sapiens, UniProt P08173); type: cell membranes, CHO-K1, Membrane; details: cho-k1; also: in other assays of this panel Not Active means under 50% inhibition at 10 µM
T4 sequence (P08173 whole entry): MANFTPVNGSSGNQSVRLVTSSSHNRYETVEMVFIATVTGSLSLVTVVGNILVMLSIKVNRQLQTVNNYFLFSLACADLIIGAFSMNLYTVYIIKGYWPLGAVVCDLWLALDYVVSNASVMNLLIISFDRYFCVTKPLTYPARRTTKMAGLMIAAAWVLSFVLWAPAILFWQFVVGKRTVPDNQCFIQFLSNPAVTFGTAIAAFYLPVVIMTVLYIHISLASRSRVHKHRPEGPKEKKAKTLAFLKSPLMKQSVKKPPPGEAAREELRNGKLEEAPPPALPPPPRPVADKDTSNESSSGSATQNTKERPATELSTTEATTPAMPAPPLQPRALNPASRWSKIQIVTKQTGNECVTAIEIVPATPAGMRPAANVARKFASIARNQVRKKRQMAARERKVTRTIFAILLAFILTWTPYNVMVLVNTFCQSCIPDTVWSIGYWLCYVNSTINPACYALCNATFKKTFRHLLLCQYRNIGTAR

[6] = biological target: Cannabinoid receptor 1 (Homo sapiens, UniProt P21554); type: cell membranes, Membrane; details: chem-1; also: in other assays of this panel Not Active means under 50% inhibition at 10 µM
[7] = biological target: D(3) dopamine receptor (Homo sapiens, UniProt P35462); assay: DRUGMATRIX: Dopamine D3 radioligand binding (ligand: [3H] Spiperone); type: cell membranes, CHO, Membrane; details: cho
[8] = DRUGMATRIX: Phosphodiesterase PDE3 enzyme inhibition (substrate: [3H]cAMP + cAMP); type: tissue-based, Homo sapiens; details: platelet; Not Active = under 50% inhibition at 10 µM
[9] = biological target: D(1A) dopamine receptor (Homo sapiens, UniProt P21728); assay: DRUGMATRIX: Dopamine D1 radioligand binding (ligand: [3H] SCH-23390); type: cell membranes, CHO, Membrane; details: cho; Not Active = under 50% inhibition at 10 µM
[10] = DRUGMATRIX: Glutamate, Kainate radioligand binding (ligand: [3H] Kainic acid); type: cell membranes, Rattus norvegicus, Wistar, Brain, Membrane; details: Not Active = under 50% inhibition at 10 µM
[11] = DRUGMATRIX: Calcium Channel Type L, Benzothiazepine radioligand binding (ligand: [3H] Diltiazem); type: cell membranes, Rattus norvegicus, Wistar, Brain, Membrane; details: Not Active = under 50% inhibition at 10 µM
[12] = biological target: T5, Neutrophil elastase (Homo sapiens, UniProt P08246); type: tissue-based
T5 sequence (P08246 whole entry): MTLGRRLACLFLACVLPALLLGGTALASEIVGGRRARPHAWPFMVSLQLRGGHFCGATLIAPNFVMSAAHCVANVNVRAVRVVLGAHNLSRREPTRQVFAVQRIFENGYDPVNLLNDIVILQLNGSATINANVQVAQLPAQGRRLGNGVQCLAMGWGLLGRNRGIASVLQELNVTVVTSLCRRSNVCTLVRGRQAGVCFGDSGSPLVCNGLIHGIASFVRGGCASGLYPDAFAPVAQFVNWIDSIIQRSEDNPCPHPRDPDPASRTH

[13] = biological target: Delta-type opioid receptor (Homo sapiens, UniProt P41143); type: cell membranes, HEK293, Membrane; details: hek293; also: in other assays of this panel Not Active means under 50% inhibition at 10 µM
Delta-type opioid receptor, sequence (P41143 whole entry): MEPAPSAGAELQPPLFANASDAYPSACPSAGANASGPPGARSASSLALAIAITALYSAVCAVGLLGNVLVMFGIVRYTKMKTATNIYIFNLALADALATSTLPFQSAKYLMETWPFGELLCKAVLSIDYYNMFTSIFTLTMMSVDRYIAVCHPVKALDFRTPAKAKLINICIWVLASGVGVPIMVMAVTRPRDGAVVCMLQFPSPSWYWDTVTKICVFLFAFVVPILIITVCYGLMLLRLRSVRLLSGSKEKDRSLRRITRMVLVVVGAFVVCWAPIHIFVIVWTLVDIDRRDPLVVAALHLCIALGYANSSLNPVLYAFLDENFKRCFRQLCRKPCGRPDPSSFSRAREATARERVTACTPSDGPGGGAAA

D(3) dopamine receptor, sequence (P35462 whole entry): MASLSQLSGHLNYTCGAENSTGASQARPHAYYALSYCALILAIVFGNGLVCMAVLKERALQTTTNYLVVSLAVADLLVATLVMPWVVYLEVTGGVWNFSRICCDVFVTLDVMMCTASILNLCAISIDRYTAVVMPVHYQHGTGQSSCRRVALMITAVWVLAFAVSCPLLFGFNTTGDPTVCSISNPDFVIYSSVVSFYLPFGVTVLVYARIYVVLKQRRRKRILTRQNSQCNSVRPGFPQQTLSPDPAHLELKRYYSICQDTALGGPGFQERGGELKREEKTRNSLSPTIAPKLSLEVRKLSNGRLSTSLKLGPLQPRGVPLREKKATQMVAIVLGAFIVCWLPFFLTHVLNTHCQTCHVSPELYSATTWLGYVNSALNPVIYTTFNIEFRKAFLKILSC
D(1A) dopamine receptor, sequence (P21728 whole entry): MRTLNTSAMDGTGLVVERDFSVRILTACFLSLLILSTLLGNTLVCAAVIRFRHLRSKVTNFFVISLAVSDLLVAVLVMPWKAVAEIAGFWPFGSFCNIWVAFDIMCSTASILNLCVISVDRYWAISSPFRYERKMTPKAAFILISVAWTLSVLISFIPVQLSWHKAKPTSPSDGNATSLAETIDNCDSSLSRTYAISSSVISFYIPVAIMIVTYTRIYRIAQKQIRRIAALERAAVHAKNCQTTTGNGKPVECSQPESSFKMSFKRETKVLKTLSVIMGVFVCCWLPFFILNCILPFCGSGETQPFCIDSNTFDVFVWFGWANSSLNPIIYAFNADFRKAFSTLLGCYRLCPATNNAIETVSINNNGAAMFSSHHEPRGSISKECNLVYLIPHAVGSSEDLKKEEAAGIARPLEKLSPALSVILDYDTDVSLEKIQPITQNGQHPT
Cannabinoid receptor 1, sequence (P21554 whole entry): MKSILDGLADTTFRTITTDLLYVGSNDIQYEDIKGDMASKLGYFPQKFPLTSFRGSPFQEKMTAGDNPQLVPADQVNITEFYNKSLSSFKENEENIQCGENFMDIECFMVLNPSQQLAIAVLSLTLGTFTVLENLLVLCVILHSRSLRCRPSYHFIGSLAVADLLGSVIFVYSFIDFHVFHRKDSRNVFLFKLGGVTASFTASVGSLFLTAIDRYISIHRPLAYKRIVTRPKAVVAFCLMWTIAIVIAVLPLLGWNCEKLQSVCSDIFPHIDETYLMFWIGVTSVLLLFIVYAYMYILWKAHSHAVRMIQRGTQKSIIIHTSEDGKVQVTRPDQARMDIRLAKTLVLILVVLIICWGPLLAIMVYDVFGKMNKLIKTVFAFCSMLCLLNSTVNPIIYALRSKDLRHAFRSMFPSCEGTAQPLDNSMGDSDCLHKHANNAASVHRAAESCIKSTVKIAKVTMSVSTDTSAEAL
Acetylcholinesterase, sequence (P22303 whole entry): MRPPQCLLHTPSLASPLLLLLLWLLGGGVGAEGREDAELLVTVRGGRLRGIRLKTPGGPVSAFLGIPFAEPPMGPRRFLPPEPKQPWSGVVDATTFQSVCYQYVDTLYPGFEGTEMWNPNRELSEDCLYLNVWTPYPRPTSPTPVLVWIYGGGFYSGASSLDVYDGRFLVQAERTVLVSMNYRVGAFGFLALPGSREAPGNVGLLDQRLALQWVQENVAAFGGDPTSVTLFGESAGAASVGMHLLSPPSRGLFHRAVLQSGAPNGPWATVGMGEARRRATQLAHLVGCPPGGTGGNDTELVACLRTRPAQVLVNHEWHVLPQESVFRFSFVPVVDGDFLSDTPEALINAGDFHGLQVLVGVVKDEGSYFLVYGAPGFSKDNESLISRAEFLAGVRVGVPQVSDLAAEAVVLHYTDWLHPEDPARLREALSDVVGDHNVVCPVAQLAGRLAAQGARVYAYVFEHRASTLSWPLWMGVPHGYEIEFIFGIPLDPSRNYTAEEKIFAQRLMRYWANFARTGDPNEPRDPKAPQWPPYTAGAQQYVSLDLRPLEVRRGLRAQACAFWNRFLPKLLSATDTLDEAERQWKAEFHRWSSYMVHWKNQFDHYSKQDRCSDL

CC=CC(=O)N(CC)c1ccccc1C
Not Active: IC50 [1] | IC50 [2] | IC50 [3] | IC50 [4] | IC50 [5] | IC50 [6] | IC50 [7] | IC50 [8] | Ki [8] | IC50 [9] | IC50 [10] | Ki [10] | IC50 [11] | Ki [11] | IC50 [12] | IC50 [13]

C=C1C(=O)O[C@@H]2C3O[C@]3(C)CC/C=C(\C)CC[C@@H]12 (some centres undefined)
Not Active: IC50 [1] | IC50 [2] | IC50 [3] | IC50 [4] | IC50 [5] | IC50 [6] | IC50 [7] | IC50 [8] | Ki [8] | IC50 [9] | IC50 [10] | Ki [10] | IC50 [11] | Ki [11] | IC50 [12] | IC50 [13]

CCCCCCCCCc1ccc(O)cc1 [4-NONYLPHENOL]
Not Active: IC50 [1] | IC50 [2] | IC50 [3] | IC50 [4] | IC50 [5] | IC50 [6] | IC50 [7] | IC50 [8] | Ki [8] | IC50 [9] | IC50 [10] | Ki [10] | IC50 [11] | Ki [11] | IC50 [12] | IC50 [13]

COc1ccc2c(c1)c(CC(=O)OCC(=O)O)c(C)n2C(=O)c1ccc(Cl)cc1 [ACEMETACIN]
Not Active: IC50 [1] | IC50 [2] | IC50 [3] | IC50 [4] | IC50 [5] | IC50 [6] | IC50 [7] | IC50 [8] | Ki [8] | IC50 [9] | IC50 [10] | Ki [10] | IC50 [11] | Ki [11] | IC50 [12] | IC50 [13]

CCCSc1ccc2nc(NC(=O)OC)[nH]c2c1 [ALBENDAZOLE]
Not Active: IC50 [1] | IC50 [2] | IC50 [3] | IC50 [4] | IC50 [5] | IC50 [6] | IC50 [7] | IC50 [8] | Ki [8] | IC50 [9] | IC50 [10] | Ki [10] | IC50 [11] | Ki [11] | IC50 [12] | IC50 [13]

Cc1[nH]cnc1CN1CCc2c(c3ccccc3n2C)C1=O [ALOSETRON]
Not Active: IC50 [1] | IC50 [2] | IC50 [3] | IC50 [4] | IC50 [5] | IC50 [6] | IC50 [7] | IC50 [8] | Ki [8] | IC50 [9] | IC50 [10] | Ki [10] | IC50 [11] | Ki [11] | IC50 [12] | IC50 [13]

O=c1cc(-c2ccccc2)oc2c1ccc1ccccc12 [ALPHA-NAPHTHOFLAVONE]
Not Active: IC50 [1] | IC50 [2] | IC50 [3] | IC50 [4] | IC50 [5] | IC50 [6] | IC50 [7] | IC50 [8] | Ki [8] | IC50 [9] | IC50 [10] | Ki [10] | IC50 [11] | Ki [11] | IC50 [12] | IC50 [13]

NCC[C@H](O)C(=O)N[C@@H]1C[C@H](N)[C@@H](O[C@H]2O[C@H](CN)[C@@H](O)[C@H](O)[C@H]2O)[C@H](O)[C@H]1O[C@H]1O[C@H](CO)[C@@H](O)[C@H](N)[C@H]1O [AMIKACIN]
Not Active: IC50 [1] | IC50 [2] | IC50 [3] | IC50 [4] | IC50 [5] | IC50 [6] | IC50 [7] | IC50 [8] | Ki [8] | IC50 [9] | IC50 [10] | Ki [10] | IC50 [11] | Ki [11] | IC50 [12] | IC50 [13]

CC1(C)S[C@@H]2[C@H](NC(=O)[C@H](N)c3ccc(O)cc3)C(=O)N2[C@H]1C(=O)O [AMOXICILLIN]
Not Active: IC50 [1] | IC50 [2] | IC50 [3] | IC50 [4] | IC50 [5] | IC50 [6] | IC50 [7] | IC50 [8] | Ki [8] | IC50 [9] | IC50 [10] | Ki [10] | IC50 [11] | Ki [11] | IC50 [12] | IC50 [13]

Source: ChEMBL document CHEMBL1909046, “DrugMatrix in vitro pharmacology data”
